“And” between values parts separate entries of the source, which are not always exact repeats. Equal values may be shown once. Where a SMILES comes first, the peptide text is derived from it. [ ]: non-standard residue; d: D form. Hyp = O=C(O)[C@@H]1C[C@@H](O)CN1
Tested on: human PBMCs
Assay: PBMC cell counts (total, live, viability; trypan blue, Countess) with and without LPS and test articles (Example 9)
Format: cell-based
Method: Treatment Human PBMCs were pretreated with YY-101, YDE-011 and YDE-043 or reference compound; Xiidra® at various concentration (ranging from 1 nM to 100 uM) for 2 h before stimulation. An equal volume of 0.5% DMSO was used as a vehicle control. Then, the cells were treated with LPS at 5 ug/ml. The supernatants from treated cells were harvested at 24 h and placed in a 96 well for Luminex cytokine & chemokine profiling using a Luminex 200 multiplex assay (Luminex; R&D system, USA).
The main study arm with triplicate wells per group in a 24-well plate: • 1. Blank • 2. PBMC: 0.5% DMSO • 3. PBMC+LPS (5 ug/ml) • 4. PBMC+YY-101 100 uM • 5. PBMC+YY-101 10 uM • 6. PBMC+YY-101 1 uM • 7. PBMC+YY-101 0.1 uM • 8. PBMC+YY-101 0.01 uM • 9. PBMC+LPS (5 ug/ml)+Xiidra®100 uM • 10. PBMC+LPS (5 ug/ml)+Xiidra® 10 uM • 11. PBMC+LPS (5 ug/ml)+Xiidra® 1 uM • 12. PBMC+LPS (5 ug/ml)+Xiidra®0.1 uM • 13. PBMC+LPS (5 ug/ml)+Xiidra®0.01 uM • 14. PBMC+LPS (5 ug/ml)+Xiidra®0.001 uM • 15. PBMC+LPS (5 ug/ml)+YY-101 100 uM • 16. PBMC+LPS (5 ug/ml)+YY-101 10 uM • 17. PBMC+LPS (5 ug/ml)+YY-101 1 uM • 18. PBMC+LPS (5 ug/ml)+YY-101 0.1 uM • 19. PBMC+LPS (5 ug/ml)+YY-101 0.01 uM • 20. PBMC+LPS (5 ug/ml)+YY-101 0.001 uM • 21. PBMC+LPS (5 ug/ml)+YDE-011 100 uM • 22. PBMC+LPS (5 ug/ml)+YDE-011 10 uM • 23. PBMC+LPS (5 ug/ml)+YDE-011 1 uM • 24. PBMC+LPS (5 ug/ml)+YDE-011 0.1 uM • 25. PBMC+LPS (5 ug/ml)+YDE-011 0.01 uM • 26. PBMC+LPS (5 ug/ml)+YDE-011 0.001 uM • 27. PBMC+LPS (5 ug/ml)+YDE-043 100 uM • 28. PBMC+LPS (5 ug/ml)+YDE-043 10 uM • 29. PBMC+LPS (5 ug/ml)+YDE-043 1 uM • 30. PBMC+LPS (5 ug/ml)+YDE-043 0.1 uM • 31. PBMC+LPS (5 ug/ml)+YDE-043 0.01 uM • 32. PBMC+LPS (5 ug/ml)+YDE-043 0.001 uM
The number of PBMCs was measured after 24 hr of treatment. The culture both and trypan blue were diluted 1:1 and 10 ul was added to Countess cell counting chamber (Thermo fisher, USA). The number of PBMCs was measured using a Countess automated cell counter (Thermo fisher, USA).

[1] = PBMC + LPS(5 ug/ml) + compound 0.001 uM, 24 hr
[2] = PBMC + LPS(5 ug/ml) + compound 0.01 uM, 24 hr
[3] = PBMC + LPS(5 ug/ml) + compound 0.1 uM, 24 hr
[4] = PBMC + LPS(5 ug/ml) + compound 1 uM, 24 hr
[5] = PBMC + LPS(5 ug/ml) + compound 10 uM, 24 hr
[6] = PBMC + LPS(5 ug/ml) + compound 100 uM, 24 hr
[7] = PBMC + LPS(5 ug/ml) + test article 0.001 uM, Mean
[8] = PBMC + LPS(5 ug/ml) + test article 0.001 uM, single replicates
[9] = PBMC + LPS(5 ug/ml) + test article 0.01 uM, Mean
[10] = PBMC + LPS(5 ug/ml) + test article 0.01 uM, single replicates
[11] = PBMC + LPS(5 ug/ml) + test article 0.1 uM, Mean
[12] = PBMC + LPS(5 ug/ml) + test article 0.1 uM, single replicates
[13] = PBMC + LPS(5 ug/ml) + test article 1 uM, Mean
[14] = PBMC + LPS(5 ug/ml) + test article 1 uM, single replicates
[15] = PBMC + LPS(5 ug/ml) + test article 10 uM, Mean
[16] = PBMC + LPS(5 ug/ml) + test article 10 uM, single replicates
[17] = PBMC + LPS(5 ug/ml) + test article 100 uM, Mean
[18] = PBMC + LPS(5 ug/ml) + test article 100 uM, single replicates
[19] = PBMC + LPS(5 ug/ml), test article 0.001 uM, Mean
[20] = PBMC + LPS(5 ug/ml), test article 0.001 uM, single replicates
[21] = PBMC + LPS(5 ug/ml), test article 0.01 uM, Mean
[22] = PBMC + LPS(5 ug/ml), test article 0.01 uM, single replicates
[23] = PBMC + LPS(5 ug/ml), test article 0.1 uM, Mean
[24] = PBMC + LPS(5 ug/ml), test article 0.1 uM, single replicates
[25] = PBMC + LPS(5 ug/ml), test article 1 uM, Mean
[26] = PBMC + LPS(5 ug/ml), test article 1 uM, single replicates
[27] = PBMC + LPS(5 ug/ml), test article 10 uM, Mean
[28] = PBMC + LPS(5 ug/ml), test article 10 uM, single replicates

SMILES: CC(C)C[C@H](NC(=O)CNC(=O)[C@H](CC(=O)O)NC(=O)[C@H](CCC(N)=O)NC(=O)CNC(=O)[C@@H]1C[C@@H](O)CN1)C(=O)N[C@@H](C)C(=O)NCC(=O)N1CCC[C@H]1C(=O)N[C@@H](CCCCN)C(=O)O [YY-101] (H-[Hyp]GQDGLAGPK-OH; N-terminus and C-terminus assumed)
- Live cell [1]: 6.5 ± 0.4 10^5/ml
- Total cell [1]: 7.7 ± 0.6 10^5/ml
- Live cell [2]: 6.2 ± 0.1 10^5/ml
- Total cell [2]: 8.1 ± 0.6 10^5/ml
- Live cell [3]: 5.9 ± 0.3 10^5/ml
- Total cell [3]: 7.8 ± 0.8 10^5/ml
- Live cell [4]: 6.5 ± 0.3 10^5/ml
- Total cell [4]: 9.8 ± 0.6 10^5/ml
- Live cell [5]: 6.7 ± 0.5 10^5/ml
- Total cell [5]: 9.1 ± 1.1 10^5/ml
- Live cell [6]: 5.8 ± 0.4 10^5/ml
- Total cell [6]: 7.8 ± 1.0 10^5/ml
- Live cell [7]: 6.5 10^5/ml
- Live cell (10^5/ml) [7]: 6.5 10^5/ml
- Live cell, Mean [7]: 6.5 10^5/ml
- Live cell (PBMC + LPS(5 ug/ml) + test article 0.001 uM, individual replicates (1st, 2nd, 3rd)): 5.7 10^5/ml and 7.1 10^5/ml and 6.6 10^5/ml
- Live cell [8]: 5.7 10^5/ml and 7.1 10^5/ml and 6.6 10^5/ml
- Live cell (10^5/ml) [8]: 5.7 10^5/ml and 7.1 10^5/ml and 6.6 10^5/ml
- Live cell (PBMC + LPS(5 ug/ml) + test article 0.001 uM, single replicates (1st, 2nd, 3rd)): 5.7 10^5/ml and 7.1 10^5/ml and 6.6 10^5/ml
- Live cell [9]: 6.2 10^5/ml
- Live cell (10^5/ml) [9]: 6.2 10^5/ml
- Live cell, Mean [9]: 6.2 10^5/ml
- Live cell (PBMC + LPS(5 ug/ml) + test article 0.01 uM, individual replicates (1st, 2nd, 3rd)): 6.4 10^5/ml and 6.0 10^5/ml and 6.1 10^5/ml
- Live cell [10]: 6.4 10^5/ml and 6.0 10^5/ml and 6.1 10^5/ml
- Live cell (10^5/ml) [10]: 6.4 10^5/ml and 6.0 10^5/ml and 6.1 10^5/ml
- Live cell (PBMC + LPS(5 ug/ml) + test article 0.01 uM, single replicates (1st, 2nd, 3rd)): 6.4 10^5/ml and 6.0 10^5/ml and 6.1 10^5/ml
- Live cell [11]: 5.9 10^5/ml
- Live cell (10^5/ml) [11]: 5.9 10^5/ml
- Live cell, Mean [11]: 5.9 10^5/ml
- Live cell [12]: 6.2 10^5/ml (2×) and 5.2 10^5/ml
- Live cell (10^5/ml) [12]: 6.2 10^5/ml (2×) and 5.2 10^5/ml
- Live cell (PBMC + LPS(5 ug/ml) + test article 0.1 uM, single replicates (1st, 2nd, 3rd)): 6.2 10^5/ml (2×) and 5.2 10^5/ml
- Live cell [13]: 6.5 10^5/ml
- Live cell (10^5/ml) [13]: 6.5 10^5/ml
- Live cell, Mean [13]: 6.5 10^5/ml
- Live cell [14]: 6.3 10^5/ml and 7.1 10^5/ml and 6.2 10^5/ml
- Live cell (10^5/ml) [14]: 6.3 10^5/ml and 7.1 10^5/ml and 6.2 10^5/ml
- Live cell (PBMC + LPS(5 ug/ml) + test article 1 uM, single replicates (1st, 2nd, 3rd)): 6.3 10^5/ml and 7.1 10^5/ml and 6.2 10^5/ml
- Live cell [15]: 6.7 10^5/ml
- Live cell (10^5/ml) [15]: 6.7 10^5/ml
- Live cell, Mean [15]: 6.7 10^5/ml
- Live cell [16]: 6.0 10^5/ml and 6.4 10^5/ml and 7.6 10^5/ml
- Live cell (10^5/ml) [16]: 6.0 10^5/ml and 6.4 10^5/ml and 7.6 10^5/ml
- Live cell (PBMC + LPS(5 ug/ml) + test article 10 uM, single replicates (1st, 2nd, 3rd)): 6.0 10^5/ml and 6.4 10^5/ml and 7.6 10^5/ml
- Live cell [17]: 5.8 10^5/ml
- Live cell (10^5/ml) [17]: 5.8 10^5/ml
- Live cell, Mean [17]: 5.8 10^5/ml
- Live cell [18]: 6.3 10^5/ml and 6.2 10^5/ml and 5.0 10^5/ml
- Live cell (10^5/ml) [18]: 6.3 10^5/ml and 6.2 10^5/ml and 5.0 10^5/ml
- Live cell (PBMC + LPS(5 ug/ml) + test article 100 uM, single replicates (1st, 2nd, 3rd)): 6.3 10^5/ml and 6.2 10^5/ml and 5.0 10^5/ml
- Live cell (PBMC + LPS(5 ug/ml), 0.001 uM, Mean): 6.5 10^5/ml
- Live cell (PBMC + LPS(5 ug/ml), 0.001 uM, single replicates): 5.7 10^5/ml and 7.1 10^5/ml and 6.6 10^5/ml
- Live cell (PBMC + LPS(5 ug/ml), 0.01 uM, Mean): 6.2 10^5/ml
- Live cell (PBMC + LPS(5 ug/ml), 0.01 uM, single replicates): 6.4 10^5/ml and 6.0 10^5/ml and 6.1 10^5/ml
- Live cell (PBMC + LPS(5 ug/ml), 0.1 uM, Mean): 5.9 10^5/ml
- Live cell (PBMC + LPS(5 ug/ml), 0.1 uM, single replicates): 6.2 10^5/ml (2×) and 5.2 10^5/ml
- Live cell (PBMC + LPS(5 ug/ml), 1 uM, Mean): 6.5 10^5/ml
- Live cell (PBMC + LPS(5 ug/ml), 1 uM, single replicates): 6.3 10^5/ml and 7.1 10^5/ml and 6.2 10^5/ml
- Live cell (PBMC + LPS(5 ug/ml), 10 uM, Mean): 6.7 10^5/ml
- Live cell (PBMC + LPS(5 ug/ml), 10 uM, single replicates): 6.0 10^5/ml and 6.4 10^5/ml and 7.6 10^5/ml
- Live cell (PBMC + LPS(5 ug/ml), 100 uM, Mean): 5.8 10^5/ml
- Live cell (PBMC + LPS(5 ug/ml), 100 uM, single replicates): 6.3 10^5/ml and 6.2 10^5/ml and 5.0 10^5/ml
- Live cell [19]: 6.5 10^5/ml
- Total cell count [19]: 7.7 10^5/ml
- Live cell [20]: 5.7 10^5/ml and 7.1 10^5/ml and 6.6 10^5/ml
- Total cell count [20]: 6.7 10^5/ml and 8.8 10^5/ml and 7.5 10^5/ml
- Viability [20]: 84.0% and 80.0% and 89.0%
- Live cell [21]: 6.2 10^5/ml
- Total cell count [21]: 8.1 10^5/ml
- Live cell [22]: 6.4 10^5/ml and 6.0 10^5/ml and 6.1 10^5/ml
- Total cell count [22]: 9.2 10^5/ml and 8.1 10^5/ml and 7.0 10^5/ml
- Viability [22]: 70.0% and 75.0% and 87.0%
- Live cell [23]: 5.9 10^5/ml
- Total cell count [23]: 7.8 10^5/ml
- Live cell [24]: 6.2 10^5/ml (2×) and 5.2 10^5/ml
- Total cell count [24]: 9.3 10^5/ml and 6.7 10^5/ml and 7.5 10^5/ml
- Viability [24]: 67.0% and 77.0% and 83.0%
- Live cell [25]: 6.5 10^5/ml
- Total cell count [25]: 9.8 10^5/ml
- Live cell [26]: 6.3 10^5/ml and 7.1 10^5/ml and 6.2 10^5/ml
- Total cell count [26]: 8.8 10^5/ml and 9.7 10^5/ml and 11.0 10^5/ml
- Viability [26]: 72.0% and 73.0% and 55.0%
- Live cell [27]: 6.7 10^5/ml
- Total cell count [27]: 9.1 10^5/ml
- Live cell [28]: 6.0 10^5/ml and 6.4 10^5/ml and 7.6 10^5/ml
- Total cell count [28]: 7.3 10^5/ml and 9.0 10^5/ml and 11.0 10^5/ml
- Viability [28]: 83.0% and 71.0% and 67.0%

Reference: patent publication US20230146455A1, “TREATMENT OF INFLAMMATORY DISEASES WITH PEPTIDES AND PHARMACEUTICAL COMPOSITIONS” (Yuyu Pharma, Inc., priority 2020, published 2023)
